Results: PubChem BioAssay (NCI)
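Briefly, cells in 96-well plates were exposed to five compound concentrations for 48 h, and endpoints were estimated by linear interpolation. Definition used: TGI = concentration required for complete inhibition of growth.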

Experiments:
Assay in all cases: NCI tumour cell line growth inhibition, 48 h
[1] = test system: 786-0 renal
[2] = test system: A549 NSCLC
[3] = test system: CAKI-1 renal
[4] = test system: CCRF-CEM leukemia
[5] = test system: DU-145 prostate
[6] = test system: EKVX NSCLC
[7] = test system: HCC-2998 colon
[8] = test system: HCT-15 colon
[9] = test system: HL-60(TB) leukemia
[10] = test system: HOP-62 NSCLC
[11] = test system: HOP-92 NSCLC
[12] = test system: HT29 colon
[13] = test system: IGROV1 ovarian
[14] = test system: K-562 leukemia
[15] = test system: KM12 colon
[16] = test system: LOX IMVI melanoma
[17] = test system: MALME-3M melanoma
[18] = test system: MCF7 breast
[19] = test system: MDA-MB-231 breast
[20] = test system: MDA-MB-435
[21] = test system: MDA-N
[22] = test system: MOLT-4 leukemia
[23] = test system: NCI-H23 lung
[24] = test system: OVCAR-4 ovarian
[25] = test system: OVCAR-8 ovarian
[26] = test system: PC-3 prostate
[27] = test system: RPMI-8226 leukemia
[28] = test system: RXF 393 renal
[29] = test system: SF-268 CNS
[30] = test system: SF-295 CNS
[31] = test system: SK-MEL-5 melanoma
[32] = test system: SK-OV-3 ovarian
[33] = test system: SN12C renal
[34] = test system: SNB-75 CNS
[35] = test system: SR leukemia
[36] = test system: SW-620 colon
[37] = test system: T-47D breast
[38] = test system: TK-10 renal
[39] = test system: UACC-257 melanoma
[40] = test system: A498 renal
[41] = test system: ACHN renal
[42] = test system: BT-549 breast
[43] = test system: COLO 205 colon
[44] = test system: HCT-116 colon
[45] = test system: M14 melanoma
[46] = test system: NCI-H226 lung
[47] = test system: NCI-H460 lung
[48] = test system: NCI/ADR-RES ovarian
[49] = test system: OVCAR-3 ovarian
[50] = test system: OVCAR-5 ovarian
[51] = test system: SF-539 CNS
[52] = test system: SK-MEL-2 melanoma
[53] = test system: SK-MEL-28 melanoma
[54] = test system: SNB-19 CNS
[55] = test system: U251 CNS
[56] = test system: UACC-62 melanoma
[57] = test system: UO-31 renal
[58] = test system: HS 578T breast
[59] = test system: NCI-H522 lung

Compound: CCN(CC)CCN1CCNc2c3cc(OC)ccc3nc3c([N+](=O)[O-])ccc1c23
- TGI [1]: 1.61 µM
- TGI [2]: 9.07 µM
- TGI [3]: > 10 µM
- TGI [4]: 2.32 µM
- TGI [5]: > 10 µM
- TGI [6]: 4.68 µM
- TGI [7]: 2.03 µM
- TGI [8]: 2.47 µM
- TGI [9]: 2.12 µM
- TGI [10]: 2.64 µM
- TGI [11]: 6.18 µM
- TGI [12]: 6.39 µM
- TGI [13]: 9.25 µM
- TGI [14]: > 10 µM
- TGI [15]: 6.21 µM
- TGI [16]: 3.21 µM
- TGI [17]: 3.23 µM
- TGI [18]: 2.98 µM
- TGI [19]: 2.23 µM
- TGI [20]: 2.69 µM
- TGI [21]: 2.27 µM
- TGI [22]: 1.42 µM
- TGI [23]: 2.44 µM
- TGI [24]: 3.12 µM
- TGI [25]: > 10 µM
- TGI [26]: 2.25 µM
- TGI [27]: 2.87 µM
- TGI [28]: 2.11 µM
- TGI [29]: > 10 µM
- TGI [30]: 4.28 µM
- TGI [31]: 2.92 µM
- TGI [32]: > 10 µM
- TGI [33]: 2.36 µM
- TGI [34]: 6.43 µM
- TGI [35]: 1.19 µM
- TGI [36]: 5.4 µM
- TGI [37]: > 10 µM
- TGI [38]: > 10 µM
- TGI [39]: 5.7 µM

Compound: CC1=C2C(=O)O[C@@H](c3ccoc3)[C@]2(C)CCC1=O
- TGI [1]: > 100 µM
- TGI [40]: > 100 µM
- TGI [2]: > 100 µM
- TGI [41]: > 100 µM
- TGI [42]: > 100 µM
- TGI [3]: > 100 µM
- TGI [4]: > 100 µM
- TGI [43]: > 100 µM
- TGI [5]: > 100 µM
- TGI [6]: > 100 µM
- TGI [7]: > 100 µM
- TGI [44]: > 100 µM
- TGI [8]: > 100 µM
- TGI [10]: > 100 µM
- TGI [11]: > 100 µM
- TGI [13]: > 100 µM
- TGI [14]: > 100 µM
- TGI [15]: > 100 µM
- TGI [16]: > 100 µM
- TGI [45]: > 100 µM
- TGI [18]: > 100 µM
- TGI [19]: > 100 µM
- TGI [20]: > 100 µM
- TGI [21]: > 100 µM
- TGI [22]: > 100 µM
- TGI [46]: > 100 µM
- TGI [23]: > 100 µM
- TGI [47]: > 100 µM
- TGI [48]: > 100 µM
- TGI [49]: > 100 µM
- TGI [50]: > 100 µM
- TGI [25]: > 100 µM
- TGI [26]: > 100 µM
- TGI [27]: > 100 µM
- TGI [30]: > 100 µM
- TGI [51]: > 100 µM
- TGI [52]: > 100 µM
- TGI [53]: > 100 µM
- TGI [31]: > 100 µM
- TGI [32]: > 100 µM
- TGI [33]: > 100 µM
- TGI [54]: > 100 µM
- TGI [34]: > 100 µM
- TGI [35]: > 100 µM
- TGI [36]: > 100 µM
- TGI [37]: > 100 µM
- TGI [55]: > 100 µM
- TGI [39]: > 100 µM
- TGI [56]: > 100 µM
- TGI [57]: > 100 µM

Compound: CCCCCCCCCCCCCCCC(=O)ON1C(=S)NC(C)(c2ccccc2)C1=S (stereo not drawn)
- TGI [1]: > 100 µM
- TGI [40]: > 100 µM
- TGI [2]: > 100 µM
- TGI [41]: > 100 µM
- TGI [42]: > 100 µM
- TGI [3]: > 100 µM
- TGI [4]: > 100 µM
- TGI [43]: > 100 µM
- TGI [5]: > 100 µM
- TGI [6]: > 100 µM
- TGI [7]: > 100 µM
- TGI [44]: > 100 µM
- TGI [8]: > 100 µM
- TGI [9]: > 100 µM
- TGI [10]: > 100 µM
- TGI [11]: > 100 µM
- TGI [58]: > 100 µM
- TGI [12]: > 100 µM
- TGI [13]: > 100 µM
- TGI [14]: > 100 µM
- TGI [15]: > 100 µM
- TGI [16]: > 100 µM
- TGI [45]: 80.1 µM
- TGI [17]: > 100 µM
- TGI [18]: > 100 µM
- TGI [19]: > 100 µM
- TGI [21]: > 100 µM
- TGI [22]: > 100 µM
- TGI [46]: > 100 µM
- TGI [23]: > 100 µM
- TGI [47]: > 100 µM
- TGI [48]: > 100 µM
- TGI [49]: > 100 µM
- TGI [24]: > 100 µM
- TGI [50]: > 100 µM
- TGI [25]: > 100 µM
- TGI [26]: > 100 µM
- TGI [27]: > 100 µM
- TGI [28]: > 100 µM
- TGI [29]: > 100 µM
- TGI [30]: > 100 µM
- TGI [51]: > 100 µM
- TGI [52]: > 100 µM
- TGI [31]: > 100 µM
- TGI [32]: > 100 µM
- TGI [33]: > 100 µM
- TGI [54]: > 100 µM
- TGI [34]: > 100 µM
- TGI [37]: > 100 µM
- TGI [38]: > 100 µM
- TGI [39]: > 100 µM
- TGI [56]: > 100 µM
- TGI [57]: > 100 µM

Compound: Cc1cc(S(N)(=O)=O)c(SCc2nc(N)nc(N(C)C)n2)cc1Cl
- TGI [1]: > 10 µM
- TGI [40]: > 10 µM
- TGI [2]: > 10 µM
- TGI [41]: > 10 µM
- TGI [42]: > 10 µM
- TGI [3]: > 10 µM
- TGI [4]: > 10 µM
- TGI [43]: > 10 µM
- TGI [5]: > 10 µM
- TGI [6]: > 10 µM
- TGI [7]: > 10 µM
- TGI [44]: > 10 µM
- TGI [8]: > 10 µM
- TGI [9]: > 10 µM
- TGI [10]: > 10 µM
- TGI [11]: > 10 µM
- TGI [58]: > 10 µM
- TGI [12]: > 10 µM
- TGI [13]: > 10 µM
- TGI [14]: > 10 µM
- TGI [15]: > 10 µM
- TGI [16]: > 10 µM
- TGI [45]: > 10 µM
- TGI [17]: > 10 µM
- TGI [18]: > 10 µM
- TGI [21]: > 10 µM
- TGI [22]: > 10 µM
- TGI [46]: > 10 µM
- TGI [23]: > 10 µM
- TGI [47]: > 10 µM
- TGI [59]: > 10 µM
- TGI [48]: > 10 µM
- TGI [49]: > 10 µM
- TGI [24]: > 10 µM
- TGI [50]: > 10 µM
- TGI [25]: > 10 µM
- TGI [26]: > 10 µM
- TGI [27]: > 10 µM
- TGI [28]: > 10 µM
- TGI [29]: > 10 µM
- TGI [30]: > 10 µM
- TGI [51]: > 10 µM
- TGI [52]: > 10 µM
- TGI [53]: > 10 µM
- TGI [31]: > 10 µM
- TGI [32]: > 10 µM
- TGI [33]: > 10 µM
- TGI [54]: > 10 µM
- TGI [34]: > 10 µM
- TGI [35]: > 10 µM
- TGI [36]: > 10 µM
- TGI [37]: > 10 µM
- TGI [38]: > 10 µM
- TGI [55]: > 10 µM
- TGI [39]: > 10 µM
- TGI [57]: > 10 µM
